System: Methicillin-resistente Staphylokokken
Test: Minimal inhibitory concentration in the agar dilution test, 39 clinical isolates
Format: cell-based
Method: Der überraschend gefundene synergistische Effekt einer Kombination von Decaplanin und Cefpirom konnte auch mit 39 klinischen Isolaten (Methicillin-resistente Staphylokokken) gezeigt werden, von denen die meisten eine ausgeprägte Resistenz gegenüber Cefpirom zeigten (MHK > 16 µg/ml). Dazu wurde die minimale Hemmkonzentration im Agarverdünnungstest von Cefpirom, Decaplanin und einer Mischung gleicher Anteile von Cefpirom und Decaplanin bestimmt. Wie Fig. 1 zeigt, ist die antibakterielle Aktivität der Mischung deutlich höher als die jeder Einzelkomponente. Aus Fig. 1 geht hervor, daß die als Beurteilungskriterium üblicherweise herangezogene minimale Hemmkonzentration, bei der 90 % der Stämme gehemmt werden (MHK90%), für die Mischung beider Komponenten mit 0,7 µg/ml am niedrigsten ist. (MHK90% für Decaplanin: 3,5 µg/ml, MHK90% für Cefpirom: 64 µg/ml).

Compound | MIC (read-out: MHK) [µg/mL] | MIC90 (read-out: MHK90%) [µg/mL] | MHK90% (minimal inhibitory concentration at which 90 % of the 39 isolates are inhibited, from Fig. 1)
CO/N=C(\C(=O)N[C@@H]1C(=O)N2C(C(=O)[O-])=C(C[n+]3cccc4c3CCC4)CS[C@H]12)c1csc(N)n1 [Cefpirom] | > 16 | 64 | 
CNC(CC(C)C)C(=O)NC1C(=O)NC(CC(N)=O)C(=O)NC2C(=O)NC3C(=O)NC(C(=O)NC(C(=O)O)c4cc(O)cc(O)c4-c4cc3ccc4O)C(OC3CC(C)(N)C(O)C(C)O3)c3ccc(cc3)Oc3cc2cc(c3OC2OC(CO)C(O)C(O)C2OC2OC(C)C(O)C(O)C2O)Oc2ccc(cc2Cl)C1O (stereo not drawn) [Decaplanin] |  |  | 3,5 µg/ml
